Experimental data published in ChEMBL document CHEMBL6103618, “Discovery of Novel Oxazolo[4,3-f]purine Derivatives as Antitumor Agents through PPIA Interaction” (J Med Chem, 2025).
Active and inactive are the calls of the source. The calls are words filed in the database; no cut-off is given here.

Columns and labels:
HCT-116 [1] = experiment: Induction of intracellular ROS generation in human HCT-116 cells incubated for 48 hrs by DHE staining based analysis; format: functional, cell-based; conditions: dose 0.3-1.2 µM
MCF7 = experiment: Antiproliferative activity against human MCF7 cells assessed as inhibition of cell viability incubated for 48 hrs by CCK8 assay; format: functional, cell-based; conditions: MCF7, 48 h
SW480 = experiment: Antiproliferative activity against human SW480 cells assessed as inhibition of cell viability incubated for 48 hrs by CCK8 assay; format: functional, cell-based; conditions: SW480, 48 h
HCT-116 [2] = experiment: Anti-invasion activity in human HCT-116 cells incubated for 24 hrs by transwell assay; format: functional, cell-based; conditions: dose 0.3-1.2 µM
HCT-116 [3] = experiment: Induction of cell cycle arrest in human HCT-116 cells assessed as accumulation at S phase at 0.3 uM incubated for 48 hrs by PI staining based flow cytometry (reference value: 34.55 %); format: functional
HCT-116 [4] = experiment: Induction of cell cycle arrest in human HCT-116 cells assessed as accumulation at G2 phase at 0.3 uM incubated for 48 hrs by PI staining based flow cytometry (reference value: 6.08 %); format: functional
HCT-116 [5] = experiment: Induction of cell cycle arrest in human HCT-116 cells assessed as accumulation at G2 phase at 0.6 uM incubated for 48 hrs by PI staining based flow cytometry (reference value: 6.08 %); format: functional
HCT-116 [6] = experiment: Induction of apoptosis in human HCT-116 cells assessed as late apoptotic cells at 1.2 uM incubated for 48 hrs by Annexin V-FITC/PI staining based flow cytometry (reference value: 1.55 %); format: functional
HCT-116 [7] = experiment: Induction of apoptosis in human HCT-116 cells assessed as increase in Bax level at 0.3 to 1.2 uM incubated for 48 hrs by Western blot analysis; format: functional, cell-based; conditions: dose 0.3-1.2 µM
HCT-116 [8] = experiment: Induction of apoptosis in human HCT-116 cells assessed as decrease in Bcl-2 level at 0.3 to 1.2 uM incubated for 48 hrs by Western blot analysis; format: functional, cell-based; conditions: dose 0.3-1.2 µM
HCT-116 [9] = experiment: Induction of DNA damage in human HCT-116 cells assessed as increase in p53 level at 0.3 to 1.2 uM incubated for 48 hrs by Western blot analysis; format: functional, cell-based; conditions: dose 0.3-1.2 µM
HCT-116 [10] = experiment: Induction of apoptosis in human HCT-116 cells assessed as increase in p53 level at 1.2 uM in presence of NAC by Western blot analysis; format: functional, cell-based
HCT-116 [11] = experiment: Induction of ER stress in human HCT-116 cells at 0.3 to 1.2 uM incubated for 48 hrs by ER-Tracker Red dye based analysis; format: functional, cell-based; conditions: dose 0.3-1.2 µM
HCT-116 [12] = experiment: Induction of mitochondrial dysfunction in human HCT-116 cells assessed as decrease in ATP6 level at 0.3 to 1.2 uM by Western blot analysis; format: functional, cell-based; conditions: dose 0.3-1.2 µM
HCT-116 [13] = experiment: Effect on NME1 expression in human HCT-116 cells upto 6 uM incubated for 30 mins followed by pronase addition measured after 30 mins by DARTS assay; format: functional, cell-based; conditions: time 60.0 min
[14] = target: Peptidyl-prolyl cis-trans isomerase A (Homo sapiens, UniProt P62937); experiment: Binding affinity to PPIA in human HCT-116 cells assessed as increase in thermal stability at 16 uM incubated for 30 mins followed by heat exposure at 40 to 60 degreeC for 3 mins by CETSA; format: cell-based; conditions: time 33.0 min
Peptidyl-prolyl cis-trans isomerase A, sequence (P62937 whole entry, looked up): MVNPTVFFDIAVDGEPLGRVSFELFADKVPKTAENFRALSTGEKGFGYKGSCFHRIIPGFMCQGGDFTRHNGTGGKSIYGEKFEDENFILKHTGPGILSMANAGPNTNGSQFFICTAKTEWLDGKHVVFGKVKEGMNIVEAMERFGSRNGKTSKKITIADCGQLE

HCT-116 [15] = experiment: Induction of apoptosis in human HCT-116 cells assessed as decrease in p-p38 level by Western blot analysis; format: functional, cell-based; conditions: dose 0.3-1.2 µM
HCT-116 [16] = experiment: Induction of apoptosis in human HCT-116 cells assessed as decrease in p-ERK1/2 level by Western blot analysis; format: functional, cell-based; conditions: dose 0.3-1.2 µM
HCT-116 [17] = experiment: Cytotoxicity against human HCT-116 cells harboring siNC assessed as inhibition of cell viability incubated for 48 hrs by CCK8 assay; format: functional, cell-based; conditions: HCT-116, 48 h
HCT-116 [18] = experiment: Cytotoxicity against human HCT-116 cells harboring siPPIA-3 assessed as inhibition of cell viability incubated for 48 hrs by CCK8 assay; format: functional, cell-based; conditions: HCT-116, 48 h
HCT-116 [19] = experiment: Inhibition of colony formation in human HCT-116 cells harboring siPPIA-3 at 1.2 uM incubated for 48 hrs followed by fresh media replacement without compound on every 72 hrs for 14 days by crystal violet staining based analysis; format: functional, cell-based
HCT-116 [20] = experiment: Anti-migration activity in human HCT-116 cells harboring siPPIA-3 at 1.2 uM incubated for 24 hrs by wound healing assay; format: functional, cell-based
Homo sapiens = species: Homo sapiens; experiment: Disruption of PPIA/CD147 (unknown origin) interaction by Co-IP assay
HCT-116 [21] = experiment: Anti-proliferative activity against human HCT-116 cells harboring siNC assessed as decrease in p-p38 level at 1.2 uM by Western blot analysis; format: functional, cell-based
HCT-116 [22] = experiment: Anti-proliferative activity against human HCT-116 cells harboring siNC assessed as decrease in p-ERK1/2 level at 1.2 uM by Western blot analysis; format: functional, cell-based
HCT-116 [23] = experiment: Induction of apoptosis in human HCT-116 cells harboring siNC assessed as late apoptotic cells at 1.2 uM by Annexin V-FITC/PI staining based flow cytometry (reference value: 1.35 %); format: functional
HCT-116 [24] = experiment: Induction of apoptosis in human HCT-116 cells harboring siNC assessed as necrotic cells at 1.2 uM by Annexin V-FITC/PI staining based flow cytometry (reference value: 0.21 %); format: functional
HCT-116 [25] = experiment: Induction of apoptosis in human HCT-116 cells harboring siPPIA-3 assessed as necrotic cells at 1.2 uM by Annexin V-FITC/PI staining based flow cytometry (reference value: 0.87 %); format: functional
[26] = Acute toxicity in BALB/c mouse assessed as death rate at 180 mg/kg, ip measured for 14 days; format: organism-based; conditions: both, in vivo, time 14 day, read-out: Activity
[27] = Acute toxicity in BALB/c mouse assessed as death rate at 500 mg/kg, ip measured for 14 days; format: organism-based; conditions: both, in vivo, time 14 day, read-out: Activity
CT26 [28] = experiment: Antitumor activity against mouse CT26 cells implanted in BALB/c mouse assessed as tumor growth inhibition administered intraperitoneally once daily for 14 days; format: functional; conditions: dose 15-45 mg/kg, route ip, time 14.0 day
CT26 [29] = experiment: Antitumor activity against mouse CT26 cells implanted in BALB/c mouse assessed as necrosis in tumor tissue at 15 to 45 mg/kg, ip qd treated for 14 days by H and E staining based analysis; format: functional, organism-based; conditions: dose 15-45 mg/kg, time 14.0 day
[30] = Toxicity in BALB/c mouse implanted with mouse CT26 cells assessed as injury in liver at 15 to 45 mg/kg, ip qd treated for 14 days by H and E staining based analysis; format: organism-based; conditions: in vivo, 336 h, dose 15-45 mg/kg, time 14 day
[31] = Toxicity in BALB/c mouse implanted with mouse CT26 cells assessed as injury in lung at 15 to 45 mg/kg, ip qd treated for 14 days by H and E staining based analysis; format: organism-based; conditions: in vivo, 336 h, dose 15-45 mg/kg, time 14 day
[32] = Toxicity in BALB/c mouse implanted with mouse CT26 cells assessed as abnormality in heart at 15 to 45 mg/kg, ip qd treated for 14 days by H and E staining based analysis; format: organism-based; conditions: in vivo, 336 h, dose 15-45 mg/kg, time 14 day
CT26 [33] = experiment: Antitumor activity against mouse CT26 cells implanted in BALB/c mouse assessed as decrease in Ki67 level at 15 to 45 mg/kg, ip qd treated for 14 days by IHC analysis; format: functional, organism-based; conditions: dose 15-45 mg/kg, time 14.0 day

C=C(C(=O)OC)N1c2nc(Cl)nc(Cl)c2N2C(c3ccccc3F)OC(C(=O)OCC)(C(=O)OCC)C12 (racemic)
Activity (HCT-116 [1]): Dose-dependent-effect | IC50 (MCF7): 1190 nM | IC50 (SW480): 2590 nM | Activity (HCT-116 [2]): Dose-dependent-effect | Activity (HCT-116 [3]): 27.89% | Activity (HCT-116 [4]): 6.26% | Activity (HCT-116 [5]): 4.71% | Activity (HCT-116 [6]): 8.35% | Activity (HCT-116 [7]): Active | Activity (HCT-116 [8]): Active | Activity (HCT-116 [9]): Active | Activity (HCT-116 [10]): inactive | Activity (HCT-116 [11]): Active | Activity (HCT-116 [12]): Active | Activity (HCT-116 [13]): No effect | Activity [14]: Active; Activity Similar To Csa | Activity (HCT-116 [15]): Dose-dependent-effect | Activity (HCT-116 [16]): Dose-dependent-effect | IC50 (HCT-116 [17]): 470 nM | IC50 (HCT-116 [18]): 1940 nM | inhibition (HCT-116 [19]): inactive | Activity (HCT-116 [20]): inactive | Activity (Homo sapiens): Active | Activity (HCT-116 [21]): Active | Activity (HCT-116 [22]): Active | Activity (HCT-116 [23]): 4.87% | Activity (HCT-116 [24]): 0.57% | Activity (HCT-116 [25]): 1.09% | mortality at 336 h [26]: 0% | mortality at 336 h [27]: 60% | inhibition (CT26 [28]): Dose-dependent-effect | Activity (CT26 [29]): Active | Activity [30]: Non-toxic | Activity [31]: Non-toxic | Activity [32]: Non-toxic | Activity (CT26 [33]): Active
